Assay results from US20120115778A1, “Methods of Suppressing Appetite by the Administration of Antagonists of the Serotonin HTR1a or HTR2b Receptors or Inhibitors of TPH2” (The Trustees of Columbia University in the City of New York, priority 2009, published 2012).
pKi: −log10 of the molar value.

Columns and labels:
[1] = Appetite in Htr1aPomc-/- mice treated with LY426965; type: in vivo
Method: These two hypotheses were tested through the use of a small molecule that selectively antagonizes signaling through Htr1a receptor. Other Htr1a and 2b receptor antagonists for use in the present invention are discussed below.
Animals were housed under 12 h light/12 h dark conditions with ad libitum access to food and water, and were used after a minimum of 4 days of acclimatization to the housing conditions. Control, Htr1aPomc−/−, Htr2bPomc−/−, Htr1a; 2 bPomc−/−, CrebPomc−/− mice were separated into individual cages one day prior to the experiment. Food intake and energy expenditure was measured every 12 hours for 36 hours essentially as described previously (6, 17).

[2] = Acute dose response of LY426965 on food intake in WT mice; type: in vivo
Method: (§1) This decrease in food intake reached 77% of control values when using 20 mg/kg of the compound (FIG. 19 C). […] Thus LY426965 decreases appetite in WT mice by inhibiting serotonin signaling through the Htr1a receptor that is located in the hypothalamus.
(§2) One or 3-month old C57B1/6J inbred female mice were used in these experiments. Two different experimental regimens were utilized to assess the effect of LY426965 on appetite in WT and ob/ob mice.
Animals were separated into individual cages one day prior to the experiment. Compound LY426965 was dissolved in water and fed orally (Gavage) according to the weight of the mouse at doses 1, 5, 10 and 20 mg/kg BW two hours prior to the commencement of the dark cycle. Control animals received the same volume of vehicle. Food intake was measured every 12 hours for 36 hours after giving one dose of the antagonist.

[3] = Mass spectrometric analysis of mice hypothalami after administration of the compound; type: in vivo
Method: as §1

[4] = Food intake in leptin-deficient ob/ob mice after a single dose of LY426965; type: in vivo; conditions: 4-week old ob/ob mice, single dose 0.2 mg/20 g of body weight, 12, 24 and 36 h later
Method: (§3) To determine whether LY426965 could decrease appetite in leptin-deficient ob/ob mice, we administered 4-week old ob/ob mice with a single dose of LY426965 (0.2 mg/20 g of body weight) and measured food intake 12, 24 and 36 h later. […] Experiments were conducted to determine whether LY426965 could rescue, at least in part, the obesity of ob/ob mice if administered chronically, once mice had already developed an obesity phenotype. 4-week old ob/ob mice were administered daily with 20 mg/kg body weight dose of LY426965 for 4 additional weeks.
as §2

[5] = Chronic treatment of ob/ob mice with LY426965; type: in vivo; conditions: 20 mg/kg body weight daily for 4 weeks from 4 weeks of age
Method: as §3
In this experiment one-month old WT and ob/ob mice (housed individually in metabolic cages) were divided into different groups and injected with the LY426965 dissolved in water and diluted in saline (final concentration 0.9%) once a day, 2 hours prior to the commencement of the dark cycle, for 4 weeks. Body weight was recorded everyday and dose of the drug and vehicle adjusted accordingly. At the end of the experiment all mice were subjected to measurement of food intake every 12 hours over a period of 36 hours.

[6] = biological target: T1, Htr1a receptor (Homo sapiens, UniProt P08908); conditions: cited from earlier work
T1 sequence (P08908 1-422): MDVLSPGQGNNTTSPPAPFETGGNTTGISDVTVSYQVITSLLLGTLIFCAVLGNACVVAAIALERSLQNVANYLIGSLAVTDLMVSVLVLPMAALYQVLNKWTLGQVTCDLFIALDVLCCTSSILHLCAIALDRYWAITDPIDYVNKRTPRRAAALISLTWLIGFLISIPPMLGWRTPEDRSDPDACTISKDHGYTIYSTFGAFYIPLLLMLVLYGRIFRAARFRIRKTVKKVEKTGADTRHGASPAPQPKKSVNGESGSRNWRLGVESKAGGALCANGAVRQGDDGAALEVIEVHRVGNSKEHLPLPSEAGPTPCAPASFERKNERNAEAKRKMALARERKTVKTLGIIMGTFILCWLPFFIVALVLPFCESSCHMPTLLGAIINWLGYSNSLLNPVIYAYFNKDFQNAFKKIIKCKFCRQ

With `COc1ccccc1N1CCN(CC[C@](C)(C(=O)C2CCCCC2)c2ccccc2)CC1` [LY426965] the appetite [1] was “not decreased”, the “decrease in food intake” value ([2]; 20 mg/kg, WT mice) was 77 % of control values and the “appetite (dose response)” value ([2]; 1 to 20 mg/kg of body weight fed to 12 week-old C57B16/J mice) was “dose-dependent decrease in appetite”. The “compound reaching the hypothalamus” value [3] was “could reach the hypothalamus”, the “food intake lower than in vehicle-treated mice” value [4] was 20-25% and the obesity phenotype [5] was “significantly decreased the obesity phenotype”. For the same compound, the “selectivity over other serotonin and non-serotonin receptor subtypes” value [6] was no less than 20 fold and the pKi ([6]; read-out: affinity for the Htr1a receptor (Ki)) was 8.33.
